# Measured values taken from patent US20250345332A1, “APROCITENTAN FOR THE TREATMENT OF HYPERTENSION” (IDORSIA PHARMACEUTICALS LTD, priority 2022, published 2025).
# How the values were obtained:
# [1] = test system: patients with resistant hypertension; test: PRECISION phase 3 trial: ambulatory blood pressure monitoring (ABPM); type: in vivo, human; details: for 24 h ambulatory DBP, placebo-corrected decrease / 24 h ambulatory SBP, placebo-corrected decrease: end of part 1 (week 4)
# Protocol: A single, randomized study with three sequential treatment parts was designed. The study design addressed both the 4-week placebo-controlled efficacy of 12.5 and 25 mg aprocitentan (Part 1) and the durability of its effects in long-term active treatment with 25 mg aprocitentan for a further 32 weeks (Part 2) followed by a 12-week placebo-controlled withdrawal period with patients re-randomized to 25 mg or placebo (Part 3) (see for example Danaietash P et al; Identifying and treating resistant hypertension in PRECISION—a randomized long-term clinical trial with Aprocitentan. J Clin Hypertension 2022 (in press). Patients with uncontrolled BP (measured as unattended automated office BP) despite the use of three or more antihypertensive medications for at least 1 year were screened. They were switched to a single-tablet triple fixed combination antihypertensive therapy for at least 4 weeks before entering a single-blind placebo run-in period. The 4-week placebo run-in period further excluded placebo responders. The randomization period consisted of 3 sequential parts: • 1) a 4-week double-blind part with aprocitentan 12.5 mg, 25 mg, or placebo (1:1:1 ratio); • 2) a 32-week single-blind part with aprocitentan 25 mg; and • 3) a 12-week randomized withdrawal part with aprocitentan 25 mg or placebo (1:1 ratio).
# ABPM is performed over a 24-hour period with the Mobil-O-Graph NG device at baseline, and Weeks 4, 36, and 40. Systolic BP and diastolic BP are measured every 20 minutes from 06:00-23:00 and every 30 minutes from 23:00-06:00. Monitoring is initiated between 06:00 and 11:00.
# • Part 1: Double-blind, randomized parallel-group and placebo-controlled and lasts for 4 weeks. Subjects received (1:1:1 ratio), 25 or 12.5 mg aprocitentan, or placebo. • Part 2: Single-blind and single-arm, lasts for 32 weeks. All subjects received aprocitentan 25 mg. • Part 3: Double-blind withdrawal. All subjects completing part 2 and entering part 3 are re-randomized (1:1 ratio) to either aprocitentan 25 mg or placebo.
# Other secondary efficacy endpoints include • changes from baseline to Week 4 and from DB-WD baseline to Week 40 in mean trough sitting diastolic blood pressure (SiDBP) measured as uAOBP. • and changes in systolic/diastolic BP measured by ABPM, including changes from baseline to Week 4 of DB treatment in 24-h mean SBP and DBP, changes from baseline to Week 4 in daytime and night-time mean SBP and DBP, changes from DB-WD baseline (Week 36) to Week 40 in 24-h mean SBP and DBP, and changes from DB-WD baseline (Week 36) to Week 40 in daytime and night-time mean SBP and DBP.
# [2] = in comparison to corresponding alkylated derivatives; cited from earlier work
# [3] = Black or African Americans, baseline to Week 4
# [4] = part 3, after 4 weeks of withdrawal (week 40), aprocitentan 25 mg
smiles,measurement,setting,value
"NS(=O)(=O)Nc1ncnc(OCCOc2ncc(Br)cn2)c1-c1ccc(Br)cc1 [aprocitentan, {5-(4-bromo-phenyl)-6-[2-(5-bromo-pyrimidin-2-yloxy)-ethoxy]-pyrimidin-4-yl}-sulfamide]",difference 25 mg versus 12.5 mg in LS mean BP reduction with ABPM (night-time SBP),[1]; [3],up to −5.90 mmHg
same,further decrease in night-time SBP with 25 mg compared to 12.5 mg,[1]; [3],> 100%
same,"24 h ambulatory DBP, placebo-corrected decrease",[1]; aprocitentan 12.5 mg,−4.3 mm Hg
same,"24 h ambulatory SBP, placebo-corrected decrease",[1]; aprocitentan 12.5 mg,−4.2 mm Hg
same,placebo-corrected SBP lowering effect during the daytime,"[1]; aprocitentan 12.5 mg, week 4",−3.8 mm Hg
same,placebo-corrected SBP lowering effect during the night time,"[1]; aprocitentan 12.5 mg, week 4",−5.1 mm Hg
same,"24 h ambulatory DBP, placebo-corrected decrease",[1]; aprocitentan 25 mg,−5.8 mm Hg
same,"24 h ambulatory SBP, placebo-corrected decrease",[1]; aprocitentan 25 mg,−5.9 mm Hg
same,placebo-corrected SBP lowering effect during the daytime,"[1]; aprocitentan 25 mg, week 4",−5.3 mm Hg
same,24 h ambulatory DBP increase with placebo compared with aprocitentan,[1]; [4],6.8 mm Hg
same,24 h ambulatory SBP increase with placebo compared with aprocitentan,[1]; [4],6.5 mm Hg
same,clearance in vivo,[2],much shorter
same,half-life in vivo,[2],much longer
